Laboratory results published in US20080064667A1, “OXAZOLE DERIVATIVES OF TETRACYCLINES” (Wyeth, priority 2003, published 2008).
Values after ≈ are worked out from the molar mass of the structure shown.

Experiments:
Assay in all cases: MIC, broth microdilution (NCCLS)
Assay type in all cases: cell-based
[1] = system: S. aureus GC1131 (Clinical); conditions: Staphylococcus aureus, Mueller-Hinton II broth, 18-22 hours at 35° C.
Method: (§1) Methods for in Vitro Antibacterial Evaluation
(§2) The Minimum Inhibitory Concentration (MIC)
(§3) Antimicrobial susceptibility testing. The in vitro activities of the antibiotics are determined by the broth microdilution method as recommended by the National Committee for Clinical Laboratory Standards (NCCLS) (1). Mueller-Hinton II broth (MHBII)(BBL Cockeysville, Md.) is the medium employed in the testing procedures. Microtiter plates containing serial dilutions of each antimicrobial agent are inoculated with each organism to yield the appropriate density (10^5 CFU/ml) in a 100 μl final volume. The plates are incubated for 18-22 hours at 35° C. in ambient air.
(§4) 1. NCCLS. 2000. Methods for Dilution Antimicrobial Susceptibility Tests for Bacteria That Grow Aerobically; Approved Standards: M7-A5, vol. 20. National Committe for Clinical Laboratory Standards, Wayne, Pa.

[2] = system: S. aureus GC2216 (ATCC Control); conditions: Staphylococcus aureus, Mueller-Hinton II broth, 18-22 hours at 35° C.
Method: as §1, §2, §3, §4

[3] = system: E. coli GC4560 (IMP mutant); conditions: Escherichia coli
Method: as §1, §2, §3, §4

[4] = system: E. coli GC2270 (tet(M)); conditions: Escherichia coli
Method: as §1, §2, §3, §4

[5] = system: E. coli GC4559 (parent GC4560); conditions: Escherichia coli, Mueller-Hinton II broth, 18-22 hours at 35° C.
Method: as §1, §2, §3, §4

[6] = system: S. pneumoniae* GC4465 (Clinical); conditions: Streptococcus pneumoniae, Mueller-Hinton II broth, 18-22 hours at 35° C.
Method: as §1, §2, §3, §4

[7] = system: H. influenzae<> GC6896 (ATCC Control); conditions: Haemophilus influenzae, Mueller-Hinton II broth, 18-22 hours at 35° C.
Method: as §1, §2, §3, §4

[8] = system: M. catarrhalis* GC6907 (Clinical); conditions: Moraxella catarrhalis, Mueller-Hinton II broth, 18-22 hours at 35° C.
Method: as §1, §2, §3, §4

[9] = system: S. aureus GC4536 (Smith MP -In Vivo); conditions: Staphylococcus aureus, Mueller-Hinton II broth, 18-22 hours at 35° C.
Method: as §1, §2, §3, §4

[10] = system: C. albicans GC3066 ATCC (Control); conditions: Candida albicans, Mueller-Hinton II broth, 18-22 hours at 35° C.
Method: as §1, §2, §3, §4

[11] = system: E. coli GC1073 (tet(B)); conditions: Escherichia coli
Method: as §1, §2, §3, §4

[12] = system: S. pneumoniae* GC1894 (Clinical); conditions: Streptococcus pneumoniae, Mueller-Hinton II broth, 18-22 hours at 35° C.
Method: as §1, §2, §3, §4

[13] = system: S. aureus GC1079 (tet(K)); conditions: Staphylococcus aureus, Mueller-Hinton II broth, 18-22 hours at 35° C.
Method: as §1, §2, §3, §4

[14] = system: S. pyogenes* GC4563 (Clinical); conditions: Streptococcus pyogenes, Mueller-Hinton II broth, 18-22 hours at 35° C.
Method: as §1, §2, §3, §4

[15] = system: E. coli GC2203 (ATCC Control); conditions: Escherichia coli, Mueller-Hinton II broth, 18-22 hours at 35° C.
Method: as §1, §2, §3, §4

[16] = system: S. aureus GC6466 (tet(M)); conditions: Staphylococcus aureus, Mueller-Hinton II broth, 18-22 hours at 35° C.
Method: as §1, §2, §3, §4

[17] = system: E. faecalis GC4555 (ATCC Control); conditions: Enterococcus faecalis, Mueller-Hinton II broth, 18-22 hours at 35° C.
Method: as §1, §2, §3, §4

[18] = system: E. faecalis GC2242 (Van-resistant); conditions: Enterococcus faecalis, Mueller-Hinton II broth, 18-22 hours at 35° C.
Method: as §1, §2, §3, §4

Row | SMILES | MIC [1] | MIC [2] | MIC [3] | MIC [4] | MIC [5] | MIC [6] | MIC [7] | MIC [8] | MIC [9] | MIC [10] | MIC [11] | MIC [12] | MIC [13] | MIC [14] | MIC [15] | MIC [16] | MIC [17] | MIC [18]
1 | COc1cc(OC)c(-c2nc3cc(N(C)C)c4c(c3o2)C(=O)C2=C(O)[C@]3(O)C(=O)C(C(N)=O)=C(O)[C@@H](N(C)C)[C@@H]3C[C@@H]2C4)c(OC)c1 [Example 15, (6aR,7aS,8S,11aS)-5,8-bis(dimethylamino)-9,11a,12-trihydroxy-11,13-dioxo-2-(2,4,6-trimethoxyphenyl)-6,6a,7,7a,8,11,11a,13-octahydrotetraceno[2,1-d][1,3]oxazole-10-carboxamide] | 64 µg/mL (≈ 98.7 µM) | 64 µg/mL (≈ 98.7 µM) | 32 µg/mL (≈ 49.3 µM) | > 64 µg/mL | > 64 µg/mL | > 64 µg/mL | > 64 µg/mL | 64 µg/mL (≈ 98.7 µM) | 64 µg/mL (≈ 98.7 µM) | > 64 µg/mL | > 64 µg/mL | > 64 µg/mL | 64 µg/mL (≈ 98.7 µM) | > 64 µg/mL | > 64 µg/mL | 64 µg/mL (≈ 98.7 µM) | 64 µg/mL (≈ 98.7 µM) | 64 µg/mL (≈ 98.7 µM)
2 | CCOc1cc(OCC)c(-c2nc3cc(N(C)C)c4c(c3o2)C(=O)C2=C(O)[C@]3(O)C(=O)C(C(N)=O)=C(O)[C@@H](N(C)C)[C@@H]3C[C@@H]2C4)cc1OCC [Example 16, (6aR,7aS,8S,11aS)-5,8-bis(dimethylamino)-9,11a,12-trihydroxy-11,13-dioxo-2-(2,4,5-triethoxyphenyl)-6,6a,7,7a,8,11,11a,13-octahydrotetraceno[2,1-d][1,3]oxazole-10-carboxamide] | 16 µg/mL (≈ 23.2 µM) | 16 µg/mL (≈ 23.2 µM) | 16 µg/mL (≈ 23.2 µM) | > 64 µg/mL | > 64 µg/mL | > 64 µg/mL | > 64 µg/mL | > 64 µg/mL | 16 µg/mL (≈ 23.2 µM) | > 64 µg/mL | > 64 µg/mL | > 64 µg/mL | 16 µg/mL (≈ 23.2 µM) | 64 µg/mL (≈ 92.7 µM) | > 64 µg/mL | 16 µg/mL (≈ 23.2 µM) | 16 µg/mL (≈ 23.2 µM) | 16 µg/mL (≈ 23.2 µM)
3 | CN(C)c1cc2nc(-c3cc4ccccc4o3)oc2c2c1C[C@H]1C[C@H]3[C@H](N(C)C)C(O)=C(C(N)=O)C(=O)[C@@]3(O)C(O)=C1C2=O [Example 18, (6aR,7aS,8S,11aS)-2-(1-benzofuran-2-yl)-5,8-bis(dimethylamino)-9,11a,12-trihydroxy-11,13-dioxo-6,6a,7,7a,8,11,11a,13-octahydrotetraceno[2,1-d][1,3]oxazole-10-carboxamide] | 4 µg/mL (≈ 6.68 µM) | 4 µg/mL (≈ 6.68 µM) | 4 µg/mL (≈ 6.68 µM) | > 64 µg/mL | > 64 µg/mL | 16 µg/mL (≈ 26.7 µM) | > 64 µg/mL | 8 µg/mL (≈ 13.4 µM) | 4 µg/mL (≈ 6.68 µM) | > 64 µg/mL | > 64 µg/mL | 16 µg/mL (≈ 26.7 µM) | 4 µg/mL (≈ 6.68 µM) | 16 µg/mL (≈ 26.7 µM) | > 64 µg/mL | 4 µg/mL (≈ 6.68 µM) | 4 µg/mL (≈ 6.68 µM) | 4 µg/mL (≈ 6.68 µM)
4 | CN(C)c1cc2nc(-c3cc4ccccc4n3C)oc2c2c1C[C@H]1C[C@H]3[C@H](N(C)C)C(O)=C(C(N)=O)C(=O)[C@@]3(O)C(O)=C1C2=O [Example 19, (6aR,7aS,8S,11aS)-5,8-bis(dimethylamino)-9,11a,12-trihydroxy-2-(1-methyl-1H-indol-2-yl)-11,13-dioxo-6,6a,7,7a,8,11,11a,13-octahydrotetraceno[2,1-d][1,3]oxazole-10-carboxamide] | 4 µg/mL (≈ 6.54 µM) | 4 µg/mL (≈ 6.54 µM) | 4 µg/mL (≈ 6.54 µM) | > 64 µg/mL | > 64 µg/mL | 4 µg/mL (≈ 6.54 µM) | > 64 µg/mL | 16 µg/mL (≈ 26.2 µM) | 8 µg/mL (≈ 13.1 µM) | > 64 µg/mL | > 64 µg/mL | 4 µg/mL (≈ 6.54 µM) | 4 µg/mL (≈ 6.54 µM) | 8 µg/mL (≈ 13.1 µM) | > 64 µg/mL | 4 µg/mL (≈ 6.54 µM) | 8 µg/mL (≈ 13.1 µM) | 4 µg/mL (≈ 6.54 µM)
5 | CN(C)c1cc2nc(-c3ccco3)oc2c2c1C[C@H]1C[C@H]3[C@H](N(C)C)C(O)=C(C(N)=O)C(=O)[C@@]3(O)C(O)=C1C2=O [Example 20, (6aR,7aS,8S,1aS)-5,8-bis(dimethylamino)-2-(2-furyl)-9,11a,1 2-trihydroxy-11,13-dioxo-6,6a,7,7a,8,11,11a,13-octahydrotetraceno[2,1-d][1,3]oxazole-10-carboxamide] | 32 µg/mL (≈ 58.3 µM) | 32 µg/mL (≈ 58.3 µM) | 32 µg/mL (≈ 58.3 µM) | > 64 µg/mL | > 64 µg/mL | > 64 µg/mL | > 64 µg/mL | 32 µg/mL (≈ 58.3 µM) | 64 µg/mL (≈ 117 µM) | > 64 µg/mL | > 64 µg/mL | 64 µg/mL (≈ 117 µM) | 32 µg/mL (≈ 58.3 µM) | 32 µg/mL (≈ 58.3 µM) | > 64 µg/mL | 32 µg/mL (≈ 58.3 µM) | 64 µg/mL (≈ 117 µM) | 32 µg/mL (≈ 58.3 µM)
6 | CN(C)c1cc2nc(/C=C/c3ccco3)oc2c2c1C[C@H]1C[C@H]3[C@H](N(C)C)C(O)=C(C(N)=O)C(=O)[C@@]3(O)C(O)=C1C2=O [Example 22, (6aR,7aS,8S,11aS)-5,8-bis(dimethylamino)-2-[(E)-2-(2-furyl)ethenyl]-9,11a,12-trihydroxy-11,13-dioxo-6,6a,7,7a,8,11,11a,13-octahydrotetraceno[2,1-d][1,3]oxazole-10-carboxamide] | 8 µg/mL (≈ 13.9 µM) | 8 µg/mL (≈ 13.9 µM) | 8 µg/mL (≈ 13.9 µM) | > 64 µg/mL | > 64 µg/mL | 32 µg/mL (≈ 55.7 µM) | > 64 µg/mL | 16 µg/mL (≈ 27.8 µM) | 8 µg/mL (≈ 13.9 µM) | > 64 µg/mL | > 64 µg/mL | 32 µg/mL (≈ 55.7 µM) | 8 µg/mL (≈ 13.9 µM) | 16 µg/mL (≈ 27.8 µM) | > 64 µg/mL | 8 µg/mL (≈ 13.9 µM) | 8 µg/mL (≈ 13.9 µM) | 8 µg/mL (≈ 13.9 µM)
7 | CN(C)c1cc2nc(-c3nccs3)oc2c2c1C[C@H]1C[C@H]3[C@H](N(C)C)C(O)=C(C(N)=O)C(=O)[C@@]3(O)C(O)=C1C2=O [Example 24, (6aR,7aS,8S,11aS)-5,8-bis(dimethylamino)-9,11a,12-trihydroxy-11,13-dioxo-2-(1,3-thiazol-2-yl)-6,6a,7,7a,8,11,11a,13-octahydrotetraceno[2,1-d][1,3]oxazole-10-carboxamide] | 32 µg/mL (≈ 56.6 µM) | 64 µg/mL (≈ 113 µM) | 32 µg/mL (≈ 56.6 µM) | > 64 µg/mL | > 64 µg/mL | 64 µg/mL (≈ 113 µM) | > 64 µg/mL | > 64 µg/mL | 32 µg/mL (≈ 56.6 µM) | > 64 µg/mL | > 64 µg/mL | 64 µg/mL (≈ 113 µM) | 32 µg/mL (≈ 56.6 µM) | 32 µg/mL (≈ 56.6 µM) | > 64 µg/mL | 32 µg/mL (≈ 56.6 µM) | 32 µg/mL (≈ 56.6 µM) | 32 µg/mL (≈ 56.6 µM)
8 | CN(C)c1cc2nc(/C=C/c3ccccc3)oc2c2c1C[C@H]1C[C@H]3[C@H](N(C)C)C(O)=C(C(N)=O)C(=O)[C@@]3(O)C(O)=C1C2=O [Example 25, (6aR,7aS,8S,11aS)-5,8-bis(dimethylamino)-9,1a,12-trihydroxy-11,13-dioxo-2-[(E)-2-phenylethenyl]-6,6a,7,7a,8,11,11a,13-octahydrotetraceno[2,1-d][1,3]oxazole-10-carboxamide] | 8 µg/mL (≈ 13.7 µM) | 4 µg/mL (≈ 6.84 µM) | 8 µg/mL (≈ 13.7 µM) | > 64 µg/mL | > 64 µg/mL | 32 µg/mL (≈ 54.7 µM) | > 64 µg/mL | 16 µg/mL (≈ 27.4 µM) | 8 µg/mL (≈ 13.7 µM) | > 64 µg/mL | > 64 µg/mL | 32 µg/mL (≈ 54.7 µM) | 4 µg/mL (≈ 6.84 µM) | 16 µg/mL (≈ 27.4 µM) | > 64 µg/mL | 4 µg/mL (≈ 6.84 µM) | 8 µg/mL (≈ 13.7 µM) | 4 µg/mL (≈ 6.84 µM)
